Laboratory results reported in patent publication US10869931B2, “Polyethylene glycol-modified angiogenesis inhibitor HM-1 and application thereof” (NANJING ANJI BIOLOGICAL TECHNOLOGY CO.,LTD, priority 2016, dated 2020).
Marks after values point to notes of the source that are not given here. Where no end group is shown, it is not given here.

Columns and labels:
[1] = tested on: Cervical cancer tumor cells; experiment: MTT proliferation inhibition, cervical cancer cells; type: cell-based, human; set-up: concentration or dose not given beside the values; details: 48 h
Method: (§1) The activity of mPEG-HM-1 to inhibit the growth of various tumor cells was examined by MTT assay. The tumor cells were cultured to a concentration of 90% or more in a 37° C., 5% CO2 incubator and collected by trypsinization. The cells were resuspended in the culture medium and counted under a microscope to adjust the cell concentration to 2×10^4 cells/mL, the cell suspension was inoculated into a 96-well plate at 100 μL/well and incubated overnight at 37° C. in a 5% CO2 incubator. mPEG-HM-1 was diluted with the culture solution to each predetermined concentration. Docetaxel is diluted to the final concentration with the culture medium. After the cells were fully attached, each dilution was added to a 96-well plate (100 μL/well). The mPEG-HM-1 dilution was added as a drug-administered group, and docetaxel was added as a positive control group, and a culture solution without any drug was used as a negative control group. Incubate for 48 h at 37° C. in a 5% CO2 incubator. 5 mg/mL of MTT was added to a 96-well plate at 20 μL per well, and incubation was continued for 4 hours. The medium was aspirated, dissolved in 150 μL of DMSO per well, and gently mixed by shaking for 10 min. The absorbance was measured at a measurement wavelength of 570 nm and a reference wavelength of 630 nm using a microplate reader, and the rate of growth inhibition (proliferation inhibition, PI) was calculated. The formula is as follows: PI (%)=1−administration group/negative group
(§2) The test was repeated 3 times independently, and the results obtained by the test were expressed as mean±SD, and the test results are shown in Table 15 to Table 18.

[2] = tested on: Thyroid cancer tumor cells; experiment: MTT proliferation inhibition, thyroid cancer cells; type: cell-based, human; set-up: concentration or dose not given beside the values; details: 48 h
Method: as §1, §2

[3] = tested on: IL-1β production by mouse peritoneal macrophages; experiment: IL-1β production by mouse peritoneal macrophages (ELISA); type: cell-based; details: 48 h
Method: (1) IL-1β production: mice were intraperitoneally injected with 1 mL of broth (containing 6%) starch, and three days later, the mouse peritoneal macrophages were aseptically taken, washed twice with 1640 medium, and the cell concentration was adjusted to 2×10^6 cells/mL, inject into a 24-well culture plate, 1 mL per well, incubate for 3 hours in a cell culture incubator, shake once every 30 minutes, and allow the cells to fully adhere. Then, it was washed twice with the culture solution to remove unattached cells. The blank group was added with PBS, the positive group was added with the positive drug dexamethasone (Dex), the model group was not administered, to the experimental group was added low, medium and high three concentrations of mPEG-HM-1, and the culture was continued for 48 hours after the administration, 1000 r/min. Centrifuge for 15 min. The supernatant was taken as a sample for testing activity of IL-1β.
(2) Determination of IL-1β content: using R&D mouse IL-1β enzyme-linked immunosorbent assay kit, according to the kit instructions as follows: respectively, the tested samples and different concentrations of standard products, sealed with sealing tape the reaction well and incubated at 37° C. for 90 min; the plate was washed four times; the biotinylated antibody working solution (100 μL/well) was added, and the reaction well was sealed with sealing paper, incubated at 37° c. for 60 min; the plate was washed four times; Add the enzyme conjugate working solution (100 μL/well), seal the reaction well with sealing paper, incubate at 37° C. for 30 min; wash the plate four times; add color reagent (100 μL/well), incubate at 37° C. 10-20 min, add stop solution (100 μL/well), mix and measure OD450 value.

[4] = tested on: Kidney cancer tumor cells; experiment: MTT proliferation inhibition, kidney cancer cells; type: cell-based, human; set-up: concentration or dose not given beside the values; details: 48 h
Method: as §1, §2

[5] = tested on: Brain tumor cells; experiment: MTT proliferation inhibition, brain tumor cells; type: cell-based, human; set-up: concentration or dose not given beside the values; details: 48 h
Method: as §1, §2

[6] = tested on: xylene-induced ear swelling in Kunming mice; experiment: Xylene-induced ear swelling in mice; type: in vivo, mouse; details: for Inhibition rate: ear swelling vs control
Method: Kunming mice were used. The saline group was used as the blank control group, the aspirin group (200 mg/kg) as the positive control group, and the mPEG-HM-1 administration group as the experimental group. Mice were administered once daily for 5 consecutive days. The blank control group was given an equal volume of physiological saline. One hour after the last administration, 0.05 mL of xylene was applied to both sides of the right ear of the mice to cause inflammation, and the left ear was not coated as normal ears. After 2 h, the mice were sacrificed by dislocation, and the ears were cut along the auricle. Ear pieces were taken with a puncher, weighed, and the swelling degree and swelling rate were calculated. Swelling degree=right ear piece weight-left ear piece weight, swelling rate=(swelling degree/left ear piece weight)×100%. Statistical t-test was performed on the test results, *P<0.05 was a significant difference, and **P<0.01 was a very significant difference. See Table 31 to Table 34 for the results.

[7] = tested on: Human Umbilical Vein Endothelial Cells (HUVEC); experiment: Transwell migration of HUVEC; type: cell-based; details: 24 h
Method: 10 mg/mL Matrigel was diluted 1:2 with HUVEC-specific medium, spread on a transwell chamber membrane, and air-dried at room temperature. HUVEC cells cultured in logarithmic growth phase were digested with trypsin digest, collected, washed twice with PBS, and resuspended in blank HUVECs-specific medium. The cells were counted under a microscope, and the cell concentration was adjusted to 1×10^5/mL. The test solutions of each group were prepared and diluted to 100 μL with a blank HUVECs-specific medium. The cells were seeded into a transwell chamber at 100 μL per well, and each set of test solution was added to the chamber. The cell culture was stimulated by adding 0.6 mL of endothelial cell culture medium containing 5% fetal bovine serum and 1% ECGS into a 24-well plate, and cultured at 5% CO2 for 24 hour at 37° c. Discard the culture medium in the well, fix it with 90% alcohol at room temperature for 30 minutes, 0.1% crystal violet for 10 min at room temperature, rinse with water, gently wipe off the unsprayed cells in the upper layer with a cotton swab, observe under microscope and select four fields to take pictures. Calculate migration inhibition (MI) according to the formula: […]
Ntest was the number of cell migration in the test group, and Ncontrol was the number of cell migration in the blank control group.
The test was repeated 3 times independently. The results obtained from the test were calculated as mean±SD, and a statistical T test was performed. *P<0.05 was a significant difference, and **P<0.01 was a very significant difference.

[8] = tested on: Liver cancer tumor cells; experiment: MTT proliferation inhibition, liver cancer cells; type: cell-based, human; set-up: concentration or dose not given beside the values; details: 48 h
Method: as §1, §2

[9] = 20 mg/kg once daily for 5 days, 2 h after xylene
[10] = 40 mg/kg once daily for 5 days, 2 h after xylene
[11] = 10 mg/kg once daily for 5 days, 2 h after xylene

Substance	rate of growth inhibition [1]	rate of growth inhibition [2]	IL-1β ([3]; 20 μg/mL)	Inhibition Rate of IL-1β production ([3]; 20 μg/mL)	IL-1β ([3]; 40 μg/mL)	Inhibition Rate of IL-1β production ([3]; 40 μg/mL)	rate of growth inhibition [4]	rate of growth inhibition [5]	Swelling [6, 9]	Inhibition rate ([6]; 20 mg/kg once daily for 5 days)	Swelling [6, 10]	Inhibition rate ([6]; 40 mg/kg once daily for 5 days)	cell migration number (Mean ± SD) ([7]; 70 μg/mL)	inhibition rate of HUVEC migration ([7]; 70 μg/mL)	cell migration number (Mean ± SD) ([7]; 80 μg/mL)	inhibition rate of HUVEC migration ([7]; 80 μg/mL)	rate of growth inhibition [8]	IL-1β ([3]; 10 μg/mL)	Inhibition Rate of IL-1β production ([3]; 10 μg/mL)	Swelling [6, 11]	other results
mPEG-SC20k-Arg-Gly-Ala-Asp-Arg-Ala-Gly-Gly-Gly-Gly-Arg-Gly-Asp ({mPEG‑SC 20 kDa}-RGADRAGGGGRGD) [mPEG-SC20k-HM-1]	62.93 ± 20.09%	50.78 ± 13.46%	761.42 ± 16.96 pg/mL	18.74%	653.20 ± 18.59 pg/mL	30.29%	67.29 ± 18.16%	55.56 ± 12.13%	5.38 ± 0.17 mg	12.36%	4.69 ± 0.79* mg	23.67%	596.77 ± 50.58	43.74%*	499.29 ± 50.26	52.93%	61.09 ± 14.09%	–	–	–	IL-1β ([3]; 80 μg/mL): 512.27 ± 10.50 pg/mL; Inhibition Rate of IL-1β production ([3]; 80 μg/mL): 45.33%; Swelling ([6]; 80 mg/kg once daily for 5 days, 2 h after xylene): 3.77 ± 0.33** mg; Inhibition rate ([6]; 80 mg/kg once daily for 5 days): 38.58%; cell migration number (Mean ± SD) ([7]; 90 μg/mL): 415.07 ± 46.74; inhibition rate of HUVEC migration ([7]; 90 μg/mL): 60.87%; cell migration number (Mean ± SD) ([7]; 100 μg/mL): 559.75 ± 52.94; inhibition rate of HUVEC migration ([7]; 100 μg/mL): 47.23%*
mPEG-SC10k-Arg-Gly-Ala-Asp-Arg-Ala-Gly-Gly-Gly-Gly-Arg-Gly-Asp ({mPEG‑SC 10 kDa}-RGADRAGGGGRGD) [mPEG-SC10k-HM-1]	57.17 ± 18.40%	46.23 ± 13.05%	666.50 ± 11.93 pg/mL	28.87%	553.03 ± 14.12 pg/mL	40.98%	60.07 ± 14.24%	50.21 ± 12.19%	4.83 ± 0.32* mg	21.37%	3.98 ± 0.21** mg	35.20%	439.89 ± 48.08	58.53%	580.33 ± 58.20	45.29%*	57.18 ± 12.35%	758.05 ± 15.18 pg/mL	19.10%	5.49 ± 0.23 mg	Inhibition rate ([6]; 10 mg/kg once daily for 5 days): 10.55%; cell migration number (Mean ± SD) ([7]; 50 μg/mL): 612.15 ± 50.34; inhibition rate of HUVEC migration ([7]; 50 μg/mL): 42.49%*; cell migration number (Mean ± SD) ([7]; 60 μg/mL): 527.08 ± 48.30; inhibition rate of HUVEC migration ([7]; 60 μg/mL): 50.31%
mPEG-SC5k-Arg-Gly-Ala-Asp-Arg-Ala-Gly-Gly-Gly-Gly-Arg-Gly-Asp ({mPEG‑SC 5 kDa}-RGADRAGGGGRGD) [mPEG-SC5k-HM-1]	51.11 ± 16.20%	39.23 ± 13.18%	561.18 ± 13.21 pg/mL	40.11%	–	–	51.07 ± 12.45%	42.18 ± 12.29%	4.17 ± 0.19** mg	32.10%	–	–	–	–	–	–	51.34 ± 11.25%	678.12 ± 12.09 pg/mL	27.63%	4.90 ± 0.35* mg	IL-1β ([3]; 5 μg/mL): 762.83 ± 15.46 pg/mL; Inhibition Rate of IL-1β production ([3]; 5 μg/mL): 18.59%; Inhibition rate ([6]; 5 mg/kg once daily for 5 days): 9.57%; Swelling ([6]; 5 mg/kg once daily for 5 days, right minus left ear piece weight 2 h after xylene): 5.55 ± 0.21 mg; Inhibition rate ([6]; 10 mg/kg once daily for 5 days): 20.13%; cell migration number (Mean ± SD) ([7]; 30 μg/mL): 617.03 ± 60.97; inhibition rate of HUVEC migration ([7]; 30 μg/mL): 41.83%*; cell migration number (Mean ± SD) ([7]; 40 μg/mL): 517.43 ± 50.39; inhibition rate of HUVEC migration ([7]; 40 μg/mL): 51.22%; cell migration number (Mean ± SD) ([7]; 50 μg/mL): 469.59 ± 48.95; inhibition rate of HUVEC migration ([7]; 50 μg/mL): 55.73%; cell migration number (Mean ± SD) ([7]; 60 μg/mL): 601.65 ± 60.73; inhibition rate of HUVEC migration ([7]; 60 μg/mL): 43.28%*
